One block for each compound: values may come before it.
Test: solvent given as SMILES
[1] = in O=P(c1ccccc1)(c1ccccc1)c1ccccc1Oc1ccccc1P(=O)(c1ccccc1)c1ccccc1

Structure (SMILES): CC(C)(C)c1ccc2c(c1)c1cc3c4cc(C(C)(C)C)ccc4c4c5c6ccc(C(C)(C)C)cc6c6cc7c8cc(C(C)(C)C)ccc8c8c2c1c(c34)c(c78)c65
fluorescence lifetime (in CCCCCC): 0.61 ns
fluorescence lifetime (in CCOCC): 0.618 ns
fluorescence lifetime (in Cc1ccccc1): 0.606 ns

fluorescence lifetime (in ClCCl): 3.6 ns
Structure (SMILES): Cc1ccc(C(=O)c2c(C)c3ccc4cccc5c6cccc7ccc2c(c76)c3c45)cc1

fluorescence lifetime (in ClC(Cl)Cl): 0.7 ns
Structure (SMILES): C(#Cc1ccccc1)C(C#Cc1ccccc1)=Cc1ccc(-c2ccc(C=C(C#Cc3ccccc3)C#Cc3ccccc3)cc2)cc1

fluorescence lifetime (in ClC(Cl)Cl): 1.5 ns
Structure (SMILES): COc1ccc2c(C=C(C#N)C#N)cc3ccc4cc(C=C(C#N)C#N)c5ccc(OC)cc5c4c3c2c1

fluorescence lifetime (in CC#N): 13.3 ns
fluorescence lifetime (in CCCCCC): 9.1 ns
Structure (SMILES): c1ccc2c(c1)[nH]c1ncccc12

Structure (SMILES): c1ccc(-c2nc(-c3ccccc3)nc(-c3ccc(-n4c5ccccc5c5cc6c(cc54)C(c4ccccc4)(c4ccccc4)c4ccccc4-6)cc3)n2)cc1
fluorescence lifetime [1]: 10.3 ns

Structure (SMILES): c1ccc(-c2nc(-c3ccccc3)nc(-c3ccc(-n4c5ccccc5c5c6c(ccc54)C4(c5ccccc5-c5ccccc54)c4ccccc4-6)cc3)n2)cc1
fluorescence lifetime [1]: 11.1 ns

Structure (SMILES): COc1cc(OC)cc(-c2ccc(-c3ccc(C#N)s3)s2)c1
fluorescence lifetime (in C1CCCCC1): 0.22 ns
fluorescence lifetime (in C1COCCO1): 0.23 ns
fluorescence lifetime (in CC#N): 0.24 ns
fluorescence lifetime (in CC(C)O): 0.23 ns
fluorescence lifetime (in CCCCO): 0.24 ns
fluorescence lifetime (in CCO): 0.24 ns
fluorescence lifetime (in CCOC(C)=O): 0.22 ns
fluorescence lifetime (in CN(C)C=O): 0.28 ns
fluorescence lifetime (in CO): 0.25 ns
fluorescence lifetime (in CS(C)=O): 0.35 ns
fluorescence lifetime (in Cc1ccccc1): 0.22 ns
fluorescence lifetime (in ClC(Cl)Cl): 0.22 ns
fluorescence lifetime (in ClCCl): 0.23 ns
fluorescence lifetime (in O): 1.02 ns

fluorescence lifetime (in CC#N): 3.26 ns
Structure (SMILES): C[n+]1ccn(CCCCc2ccc3c(c2)c2ccccc2n3-c2cc(C#N)c(C#N)cc2F)c1

fluorescence lifetime (in CO): 0.873 ns
Structure (SMILES): CC1(C)C(/C=C/C2=C(Oc3ccc(CCN=C=S)cc3)C(=C/C=C3/N(CCCS(=O)(=O)[O-])c4ccccc4C3(C)C)/CCC2)=[N+](CCCS(=O)(=O)[O-])c2ccccc21

fluorescence lifetime (in c1cc(-n2c3ccccc3c3ccccc32)cc(-n2c3ccccc3c3ccccc32)c1): 5.9 ns
Structure (SMILES): COc1ccc(-c2ccc3c(c2)c2cc(-c4ccc(OC)cc4)ccc2n3-c2ccc(C(=O)c3ccc4sc5ccccc5c4c3)cn2)cc1

Structure (SMILES): COc1ccc(/C=C/C2=CC(/C=C/c3ccc(OC)cc3)=[O+][B-](F)(F)O2)cc1
fluorescence lifetime (in CC#N): 1.55 ns
fluorescence lifetime (in CC(C)=O): 1.49 ns
fluorescence lifetime (in CCOC(C)=O): 0.88 ns
fluorescence lifetime (in CCOCC): 0.7 ns
fluorescence lifetime (in ClC(Cl)(Cl)Cl): 0.5 ns
fluorescence lifetime (in ClCCl): 1.3 ns

Structure (SMILES): O=C(c1ccc(-n2c3ccccc3c3cc(-n4c5ccccc5c5ccccc54)ccc32)cc1)c1ccc(-n2c3ccccc3c3cc(-n4c5ccccc5c5ccccc54)ccc32)cn1
fluorescence lifetime [1]: 62 ns

Structure (SMILES): CN(C)c1ccc(/C=C2\CC/C(=C\c3ccc(C#N)cc3)C2=O)cc1
fluorescence lifetime (in C1CCOC1): 0.18 ns
fluorescence lifetime (in CC#N): 0.17 ns
fluorescence lifetime (in CC(C)=O): 0.23 ns
fluorescence lifetime (in CC(C)O): 0.21 ns
fluorescence lifetime (in CCCCO): 0.22 ns
fluorescence lifetime (in CCCCOC(C)=O): 1.01 ns
fluorescence lifetime (in CCCO): 0.18 ns
fluorescence lifetime (in CCO): 0.14 ns
fluorescence lifetime (in CCOC(=O)c1ccccc1): 1.24 ns
fluorescence lifetime (in CCOC(C)=O): 0.9 ns
fluorescence lifetime (in CCOCC): 0.89 ns
fluorescence lifetime (in CN(C)C=O): 0.18 ns
fluorescence lifetime (in CO): 0.13 ns
fluorescence lifetime (in CS(C)=O): 0.19 ns
fluorescence lifetime (in Cc1ccccc1): 0.56 ns
fluorescence lifetime (in ClC(Cl)(Cl)Cl): 0.17 ns
fluorescence lifetime (in ClC(Cl)Cl): 2.08 ns
fluorescence lifetime (in ClCCl): 1.29 ns
fluorescence lifetime (in Clc1ccccc1Cl): 2.18 ns
fluorescence lifetime (in O=C1CCCC1): 0.31 ns
fluorescence lifetime (in S=C=S): 0.28 ns
fluorescence lifetime (in c1ccccc1): 0.76 ns
fluorescence lifetime (in c1ccncc1): 0.41 ns

fluorescence lifetime (in ClCCl): 3 ns
Structure (SMILES): CCN(CC)c1ccc2cc(C#N)/c(=N\C(=O)c3ccco3)oc2c1

fluorescence lifetime (in ClC(Cl)Cl): 0.315 ns
Structure (SMILES): F[B-]1(F)OC(c2cccc(Br)c2)=Cc2c3ccccc3c3ccccc3[n+]21

fluorescence lifetime (in ClCCl): 6.6 ns
Structure (SMILES): F[B-]1(F)n2c(c3cccc4cccc2c43)=Nc2sc3ccccc3[n+]21

fluorescence lifetime (in CO): 0.2 ns
fluorescence lifetime (in ClC(Cl)Cl): 1.05 ns
Structure (SMILES): CN1C(=CC2=C([O-])C(=CC3=[N+](C)c4ccccc4C3(C)C)C2=O)C(C)(C)c2cc(Cl)ccc21

fluorescence lifetime (in CS(C)=O): 4.4 ns
Structure (SMILES): CN(C)c1ccc2cc3c(cc2c1)OCCN=C3

Structure (SMILES): Cc1cc(-c2ccc(-n3c4ccccc4c4ccccc43)cc2)nc(-c2ccc(-c3ccccc3)cc2)n1
fluorescence lifetime (in C1CCOC1): 4.02 ns
fluorescence lifetime (in CN(C)C=O): 6.66 ns
fluorescence lifetime (in Cc1ccccc1): 2.27 ns
fluorescence lifetime (in ClC(Cl)Cl): 3.93 ns

Structure (SMILES): Cc1c(C)c(B(c2c(C)c(C)c(N3c4ccccc4Oc4ccccc43)c(C)c2C)c2c(C)c(C)c(N3c4ccccc4Oc4ccccc43)c(C)c2C)c(C)c(C)c1C#N
fluorescence lifetime (in c1ccc([Si](c2ccccc2)(c2ccc(-n3c4ccccc4c4ccccc43)cc2)c2ccc(-n3c4ccccc4c4ccccc43)cc2)cc1): 18 ns

fluorescence lifetime (in CC#N): 0.63 ns
Structure (SMILES): Cc1cc2nc3c(=O)[nH]c(=O)n(C)c3nc2cc1C

fluorescence lifetime (in ClCCl): 1.17 ns
Structure (SMILES): C(=C\c1cc(-c2ccc3ccccc3c2)c(/C=C/c2ccc(N(c3ccccc3)c3ccccc3)cc2)cc1-c1ccc2ccccc2c1)/c1ccc(N(c2ccccc2)c2ccccc2)cc1

fluorescence lifetime (in C1CCOC1): 4.4 ns
fluorescence lifetime (in C1COCCO1): 4.2 ns
fluorescence lifetime (in CC#N): 4.4 ns
fluorescence lifetime (in CC(C)O): 4.6 ns
fluorescence lifetime (in CCO): 4.3 ns
fluorescence lifetime (in CO): 2.9 ns
fluorescence lifetime (in CS(C)=O): 7.1 ns
fluorescence lifetime (in NC=O): 5.4 ns
fluorescence lifetime (in O): 0.3 ns
fluorescence lifetime (in OCC(F)(F)F): 0.1 ns
fluorescence lifetime (in [2H]O[2H]): 0.4 ns
Structure (SMILES): N#Cc1ccc2[nH]ccc2c1

Structure (SMILES): CCOC(=O)CN1C(=O)C2=C(c3ccc(N4CCCCC4)cc3)N(CC(=O)OCC)C(=O)C2=C1c1ccccc1
fluorescence lifetime (in CC#N): 2.7 ns
fluorescence lifetime (in CS(C)=O): 6.7 ns
fluorescence lifetime (in Cc1ccccc1): 4 ns
